Experiments:
[1] = system: MDA-MB-436 cells; assay: CTG Protocol (MDA-MB-436 GI50), antiproliferative activity; format: cell-based, human; conditions: MDA-MB-436 cells (BRCA1 mutation), 7-day incubation, CellTiter-Glo
In short: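 BRCA1-mutant MDA-MB-436 cells were seeded at 1000 cells/well in DMEM, left overnight, then exposed to a 9-point, 3-fold compound series for 7 days at 37 °C, 5% CO2. Viability was read by CellTiter-Glo luminescence. % inhibition was plotted against concentration to derive GI50.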

[2] = system: HCC1806 Ub-PCNA (USP1); assay: USP1 Western Blot Protocol (HCC1806 Ub-PCNA); format: cell-based; conditions: HCC1806 cells, 4 hours
In short: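 HCC1806 cells seeded overnight, then treated 4 h at 37 °C with a 5-point, 4-fold dilution series (0.1% DMSO). Lysates immunoblotted for Ub-PCNA with fluorescent detection; inhibition expressed as % vehicle from Ub-PCNA upregulation, IC50 by four-parameter logistic fit.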

[3] = target: T1, recombinant USP1/UAF1 enzyme complex (Homo sapiens, UniProt O94782); assay: Enzyme assay: deubiquitinase fluorometric assay with ubiquitin-Rhodamine substrate; format: biochemical; conditions: USP1/UAF1, Ub-Rho110 substrate, 2 hours preincubation, 1 hour reaction
T1 construct: purchased Biortus
T1 sequence (O94782 whole entry): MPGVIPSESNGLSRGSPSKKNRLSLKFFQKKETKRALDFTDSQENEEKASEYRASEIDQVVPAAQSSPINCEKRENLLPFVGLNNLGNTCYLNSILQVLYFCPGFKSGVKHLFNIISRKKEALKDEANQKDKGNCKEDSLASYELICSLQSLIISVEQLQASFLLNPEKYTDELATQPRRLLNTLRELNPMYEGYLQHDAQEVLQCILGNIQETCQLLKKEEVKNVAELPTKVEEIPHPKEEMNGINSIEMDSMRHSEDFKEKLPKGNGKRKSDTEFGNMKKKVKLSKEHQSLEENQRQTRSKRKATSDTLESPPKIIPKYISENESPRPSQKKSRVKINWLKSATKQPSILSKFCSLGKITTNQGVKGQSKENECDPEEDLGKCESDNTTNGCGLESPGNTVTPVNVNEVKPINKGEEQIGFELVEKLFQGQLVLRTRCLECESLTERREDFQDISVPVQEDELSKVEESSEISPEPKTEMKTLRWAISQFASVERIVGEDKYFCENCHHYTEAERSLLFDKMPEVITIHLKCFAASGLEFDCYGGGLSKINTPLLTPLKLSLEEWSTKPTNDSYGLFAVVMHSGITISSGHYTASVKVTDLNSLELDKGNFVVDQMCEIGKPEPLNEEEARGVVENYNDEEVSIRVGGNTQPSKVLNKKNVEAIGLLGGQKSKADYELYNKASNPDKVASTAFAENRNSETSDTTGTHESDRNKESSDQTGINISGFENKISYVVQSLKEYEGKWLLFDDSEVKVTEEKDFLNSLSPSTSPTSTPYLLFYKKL
T1 sequence (Q8TAF3 whole entry partner): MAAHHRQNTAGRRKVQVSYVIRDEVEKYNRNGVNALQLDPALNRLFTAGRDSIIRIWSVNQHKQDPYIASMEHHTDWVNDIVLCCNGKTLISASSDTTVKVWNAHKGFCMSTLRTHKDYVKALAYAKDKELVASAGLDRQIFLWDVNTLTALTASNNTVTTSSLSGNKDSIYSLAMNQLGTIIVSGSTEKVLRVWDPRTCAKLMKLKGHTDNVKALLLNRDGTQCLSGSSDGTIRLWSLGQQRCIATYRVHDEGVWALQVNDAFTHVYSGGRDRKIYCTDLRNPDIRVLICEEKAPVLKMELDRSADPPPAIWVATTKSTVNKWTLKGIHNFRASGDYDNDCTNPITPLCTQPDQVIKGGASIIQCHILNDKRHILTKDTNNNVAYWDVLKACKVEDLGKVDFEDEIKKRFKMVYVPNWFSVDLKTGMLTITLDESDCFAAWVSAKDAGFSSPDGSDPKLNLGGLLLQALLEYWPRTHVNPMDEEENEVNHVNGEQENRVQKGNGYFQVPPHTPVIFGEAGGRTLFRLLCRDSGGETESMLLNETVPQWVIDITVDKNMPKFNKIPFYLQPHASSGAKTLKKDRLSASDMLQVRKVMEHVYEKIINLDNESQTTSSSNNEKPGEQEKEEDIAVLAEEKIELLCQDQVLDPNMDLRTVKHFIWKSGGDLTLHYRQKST
Procedure: Enzymatic inhibitory potency of the compounds was assessed in a deubiquitinase fluorometric assay using ubiquitin-Rhodamine (Ub-Rho110, R&D Systems) as substrate and the recombinant USP1/UAF1 enzyme complex (Biortus). Assays were performed in a final volume of 12 μL using black 384-well plates (Corning #4514) containing 50 mM HEPES (pH 7.5, BioRoYee), 0.5 mM EDTA, 1 mM dithiothreitol, 0.1 mg/mL bovine serum albumin, 50 nM Ub-Rhol10, 0.004 nM USP1/UAF1, and series diluted compounds from 10 μM to 0.5 nM (10 dilution steps). Assay-ready plates containing 40 nL of Echo-dispensed compound in DMSO were reconstituted with 2 μL of ddH2O, then 5 μL of USP1/UAF1 enzyme mixture was added and preincubated at room temperature for 2 hours. Enzymatic reaction was initiated by the addition of […] substrate mixture and assay allowed to proceed for 1 hour at room temperature before quenching with 3 μL of 150 mM citric acid. Fluorescence signal was detected via TECAN SPARK with excitation at 485 nm and emission at 535 nm. Data analysis was done using GraphPad Prism8 and IC50 values were obtained by 4-parameter logistic curve fitting.
Certain compounds were tested in the assays.

[4] = Liver microsomal stability (HLM); format: in vitro ADME; conditions: human, liver microsomes, human liver microsomes 0.5 mg/mL, 1 μM compound, NADPH
[5] = system: MDA-MB-436 subcutaneous human breast cancer model; assay: In vivo efficacy in MDA-MB-436 subcutaneous xenograft; conditions: NOD SCID mice, 28 days
Procedure: Anti-tumor efficacy of USP1 inhibitors were evaluated in mice using the MDA-MB-436 subcutaneous human breast cancer model that harbors the loss-of-function BRCA1 mutation. 6-8 weeks old female NOD SCID mice from Beijing Anikeeper Biotech Co., Ltd. were inoculated subcutaneously with 1×10^7 MDA-MB-436 tumor cells. When tumors reached a size of approximately 130 mm 3 mice were randomized into group of 5 or 9 and dosed via oral gavage once or twice daily for 28 days with either vehicle (twice daily, 9 animals), one dose of USP1 inhibitor 1-107 at 150 mg/kg (twice daily, 5 animals), three doses of USP1 inhibitor I-111 at […] (once daily, 9 animals per group), or one dose of USP1 inhibitor 1-124 at 150 mg/kg (twice daily, 5 animals). Body weight and tumor volume were measured twice per week. Tumor volume (TV) was calculated as mean and standard deviation of the mean for each treatment group. The percentage tumor growth inhibition (TGI) was calculated using the formula: TGI=(RTVvehicle−RTVtreatment)*100)/(RTVvehicle −1), where RTV is the mean relative volumes (RTV=TVDay terminal[…]) of the tumors in the treatment and the vehicle groups, respectively, on a given day from Day 0-Day 28 where Day 0 is the first day of treatment.
All treatment groups were well-tolerated, with various dose levels and dosing frequency for the duration of the treatment period from day 0 to day 28 in the tumor bearing mice, as shown in FIG. 2.

[6] = Solubility in FaSSIF (Fasted State Simulated Intestinal Fluid); format: physicochemical; conditions: kinetic from dmso stock, FaSSIF pH 6.5, 25° C.
Procedure: Solubility in FaSSIF (Fasted State Simulated Intestinal Fluid)
Certain Compounds of the Disclosure were assessed for the apparent solubility in FaSSIF.
0.420 g of NaOH, 3.438 g of NaH2PO4 and 6.186 g of NaCl were dissolved into about 900 mL ultrapure water. The solution was adjusted to the pH of 6.5 with 1N NaOH or 1N HCl. The solution was then diluted with ultrapure water to 1000 mL at room temperature. The resulting solution is used as buffer solution.
2.240 g of FaSSIF Powder was added to about 500 mL of above-mentioned buffer solution. The solution was stirred until powder was completely dissolved. Then the solution was diluted with buffer A to 1000 mL at room temperature. This solution is FaSSIF to be used in the following experiment.
15 μL of stock solution (10 mM) of each sample was placed into their proper 96-well rack. 485 μL of FaSSIF was added into each vial of the cap-less solubility sample plate. One stir stick was added to each vial and the vial was sealed using a molded PTFE/Silicone plug. The solubility sample plate was transferred to the Eppendorf Thermomixer Comfort plate shaker and shaked at 25° C. at 1100 RPM for 2 hours. After completion of the 2 hours, the stir sticks using a big magnet were removed. The samples from the solubility sample plate were transferred into the filter plate. Using the vacuum manifold, all the samples are filtered. Aliquot of 5 μL was taken from filtrate followed by addition of 5 μL DMSO and 490 μL of a mixture of H2O and acetonitrile containing internal standard (1:1).
3 μM Standards solution (STD) was prepared from the 10 mM DMSO STD plate.as following: transferring 6 μL into the remaining empty plate, adding 194 μL of DMSO to that plate to have a STD concentration of 300 μM. From the 300 μM DMSO STD plate, 5 μL solution was transferred into the remaining empty plate. Addition of 5 μL PBS and 490 μL of a mixture of H2O and acetonitrile containing internal standard (1:1) to that plate furnished a final STD concentration of 3 μM STD solution.
The samples are analyzed and quantified against the standard of known concentration using LC/MS/MS, calculating the solubility of the test compound as following (DF means the dilution factor):
[Sample solubility in FsSSIF (04)]=Area Ratio sample×DF sample×[STD]/Area Ratio STD

Compound | GI50 ([1]; Homo sapiens, 168 h) [nM] | IC50 ([2]; Homo sapiens) [nM] | IC50 [3] [nM] | microsomal CLint at 1 μM [4] [µL/min/mg] | further results
COc1ncnc(C2CC2)c1-c1ncc2ccc(=O)n(Cc3ccc(-c4ncccc4OC(C)C)cc3)c2n1 [Compound I-33] | 10 to 100 | 10 to 100 | 10 to 100 | ≥ 50 | –
COc1ncnc(C2CC2)c1-c1ncc2cc(C3CCN(C)CC3)c(=O)n(Cc3ccc(-c4nc(C(F)(F)F)cn4C4CC4)cc3)c2n1 [Compound I-111] | – | – | – | < 10 | TGI (tumor growth inhibition) ([5]; 10 mg/kg QD oral gavage): ~55%; TGI (tumor growth inhibition) ([5]; 30 mg/kg QD oral gavage): ~80%; TGI (tumor growth inhibition) ([5]; 60 mg/kg QD oral gavage): > 100%; solubility at 2 h [6]: ≥ 100 µM
COc1ncnc(C2CC2)c1-c1ncc2c(n1)N(Cc1ccc(-c3nc(C(F)(F)F)cn3C(C)C)cc1)C(=O)NC2 [Compound I-24] | 10 to 100 | 10 to 100 | 10 to 100 | ≥ 50 | –
COc1ncnc(C2CC2)c1-c1ncc2c(n1)N(Cc1ccc(-c3nc(C(F)(F)F)cn3C(C)C)cc1)C(=O)N(C)C2 [Compound I-25] | 10 to 100 | 10 to 100 | 10 to 100 | ≥ 50 | –
COc1ncnc(C2CC2)c1-c1ncc2ccc(=O)n(Cc3ccc(-c4ncccc4N4CCN(C)CC4)cc3)c2n1 [Compound 85, 2-(4-cyclopropyl-6-methoxypyrimidin-5-yl)-8-({4-[3-(4-methylpiperazin-1-yl)pyridin-2-yl]phenyl}methyl)pyrido[2,3-d]pyrimidin-7-one] | 10 to 100 | 100 to 1000 | 10 to 100 | – | –
COc1ncnc(C2CC2)c1-c1ncc2ccc(=O)n(Cc3ccc(-c4cncc(C(F)(F)F)n4)cc3)c2n1 [Compound I-51, 2-(4-cyclopropyl-6-methoxypyrimidin-5-yl)-8-({4-[6-(trifluoromethyl)pyrazin-2-yl]phenyl}methyl)pyrido[2,3-d]pyrimidin-7-one] | 100 to 1000 | 100 to 1000 | 100 to 1000 | – | –
CCn1cc(C(F)(F)F)nc1-c1ccc(Cn2c(=O)c(C(=O)N3CCN(C)CC3)cc3cnc(-c4c(OC)ncnc4C4CC4)nc32)cc1 [Compound I-30, 2-(4-Cyclopropyl-6-Methoxypyrimidin-5-Yl)-8-({4-[1-Ethyl-4-(Trifluoromethyl)Imidazol-2-Yl]Phenyl}Methyl)-6-(4-Methylpiperazine-1-Carbonyl)Pyrido[2,3-d]Pyrimidin-7-One] | 10 to 100 | 10 to 100 | 10 to 100 | – | –
Cc1ncnc(C2CC2)c1-c1ncc2ccc(=O)n(Cc3ccc(-c4nc(C(F)(F)F)cn4C)cc3)c2n1 [Compound I-49, 2-(4-Cyclopropyl-6-Methylpyrimidin-5-Yl)-8-({4-[1-Methyl-4-(Trifluoromethyl)Imidazol-2-Yl]Phenyl}Methyl)Pyrido[2,3-d]Pyrimidin-7-One] | 100 to 1000 | 100 to 1000 | 10 to 100 | – | –
COc1cc(Cn2c(=O)ccc3cnc(-c4c(OC)ncnc4C4CC4)nc32)cc(F)c1-c1nc(C(F)(F)F)cn1C [Compound 73, 2-(4-Cyclopropyl-6-Methoxypyrimidin-5-Yl)-8-({3-Fluoro-5-Methoxy-4-[1-Methyl-4-(Trifluoromethyl)Imidazol-2-Yl]Phenyl}Methyl)Pyrido[2,3-d]Pyrimidin-7-One] | 10 to 100 | 10 to 100 | 10 to 100 | – | –
COc1ncnc(C2CC2)c1-c1ncc2ccc(=O)n(Cc3ccc(-c4nc(C)ccc4F)cc3)c2n1 [Compound I-35] | 10 to 100 | 10 to 100 | 100 to 1000 | – | –
COc1ncnc(C2CC2)c1-c1ncc2cc(CN3CCN(C)CC3)c(=O)n(Cc3ccc(-c4nc(C(F)(F)F)cn4C)cc3)c2n1 [Compound 55, 2-(4-cyclopropyl-6-methoxypyrimidin-5-yl)-8-({4-[1-methyl-4-(trifluoromethyl)imidazo]-2-yl]phenylmethyl)-6-[(4-methylpiperazin-1-yl)methyl]pyrido[2,3-d]pyrimidin-7-one] | – | – | 10 to 100 | – | GI50 [1]: 10 to 100 nM; IC50 [2]: 10 to 100 nM
COc1ncnc(C2CC2)c1-c1ncc2ccc(=O)n(Cc3ccc(-c4nc(C(F)(F)F)cn4C4CC4)cc3)c2c1F [Compound 82] | 10 to 100 | 10 to 100 | 10 to 100 | – | –
COc1ncnc(C2CC2)c1-c1ncc2ccc(=O)n(Cc3ccc(-c4ncccc4C)cc3)c2n1 [Compound 74, 2-(4-cyclopropyl-6-methoxypyrimidin-5-yl)-8-{[4-(3-methylpyridin-2-yl)phenyl]methyl}pyrido[2,3-d]pyrimidin-7-one] | 10 to 100 | 10 to 100 | 10 to 100 | – | –
